The values that follow come from the supplement of paper PMC8253809.

The test system of assay [1] is HGGX39 (paediatric high-grade glioma line). Briefly: area under dose-response curve of % growth inhibition (log2 RLU vs DMSO / staurosporine), 1e-11 to 1e-4 M (% x log10 M); higher = more growth inhibition. In short, it runs like this:
(§1)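 A 10-point threefold dilution series, mean top concentration 35 μM, was applied in triplicate to patient-derived pHGG/DIPG lines and astrocytes on 1% Geltrex-coated 384-well plates for 7 days (3 days for iAstro) at 37 °C, 5% CO2. Per-plate % activity between solvent and positive controls was calculated from log2-transformed CellTiter-Glo luminescence. Area under the curve followed from the trapezoid rule on a log-logistic fit, or on a smoothing spline when the sigmoid fit failed.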

A further assay relates to DIPGX29 (H3.3 K27M diffuse intrinsic pontine glioma line). Described as above. In a few lines: as §1
A further assay has as its system HGGX6 (H3.3 G34R paediatric high-grade glioma line). The description is as above. In short, it runs like this:
as §1

In assay [2] the test system is DIPGX37 (H3.3 K27M diffuse intrinsic pontine glioma line). The description is as above. In a few lines: as §1
For assay [3], the system named is HGGX39. Nature of the assay: EC50 (inflection of fitted growth-inhibition curve) (log10 M). In a few lines:
(§2)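 A pin tool was used to add a 10-point threefold dilution series (mean top concentration 35 μM), in triplicate, to patient-derived pHGG/DIPG cell lines and astrocyte controls seeded on 384-well plates coated with 1% Geltrex. After 7 days at 37 °C and 5% CO2 (3 days for iAstro), CellTiter-Glo luminescence was log2-transformed, normalised on each plate to % activity relative to negative (solvent) and positive control wells, and pooled. EC50 and maximal response (yFin) were read from the three- or four-parameter log-logistic fit with the lowest AICc.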

For assay [4], the system named is DIPGX37. The description is as above. In short, it runs like this: as §2
Assay [5] relates to HGGX39. Nature of the assay: maximal growth inhibition (yFin) relative to DMSO / staurosporine; higher = more efficacious. In a few lines:
as §2

Assay [6] has as its system DIPGX37. The description is as above. In short, it runs like this: as §2

`C[C@@H]1CC[C@H]2[C@@H](C)C(=O)O[C@@H]3O[C@@]4(C)CC[C@@H]1[C@]32OO4` [ARTEMISININ]: the “area under dose-response curve” value was 36.8 with HGGX39 [1], 19.7 in the assay with DIPGX29, 20.9 in the assay on HGGX6 and 42.5 with DIPGX37 [2]. The figures for the “EC50 (log10 M)” value in the assay with HGGX39 [3] and in the assay with DIPGX37 [4] were -5.38 and -5.3, respectively. The maximal growth inhibition with HGGX39 [5] stood at 29.7%; with DIPGX37 [6] it was 32.7%.
Turning to `CC/C(=C(\c1ccccc1)c1ccc(OCCN(C)C)cc1)c1ccccc1` [TAMOXIFEN], the “area under dose-response curve” value with HGGX39 [1] turned out to be 8.92; in the assay on DIPGX29 it was 8.96; in the assay with HGGX6, 12.2; in the assay on DIPGX37 [2], 50.8. Moreover, the “EC50 (log10 M)” value in the assay on DIPGX37 [4] was -4.61. Besides, the maximal growth inhibition with DIPGX37 [6] was found to be 64.9%.
Regarding `CCc1c2c(nc3ccc(OC(=O)N4CCC(N5CCCCC5)CC4)cc13)-c1cc3c(c(=O)n1C2)COC(=O)[C@]3(O)CC` [IRINOTECAN], the “area under dose-response curve” value in the assay on HGGX39 [1] stood at 107; in the assay with DIPGX29, 52.4; in the assay with HGGX6, 25.9; in the assay with DIPGX37 [2], 56.4. The “EC50 (log10 M)” value was -5.98 in the assay with HGGX39 [3] and -7.09 in the assay with DIPGX37 [4]. For the same molecule, the values for the maximal growth inhibition in the assay on HGGX39 [5] and with DIPGX37 [6] were 53.2% and 20.5%, respectively.
Turning to `N[C@@H](Cc1cc(I)c(Oc2ccc(O)c(I)c2)c(I)c1)C(=O)O` [LIOTHYRONINE], the “area under dose-response curve” value was 51.4 in the assay with HGGX39 [1], 31.4 in the assay on DIPGX29, 11.9 with HGGX6 and 62.2 in the assay with DIPGX37 [2]. For the same molecule, the figures for the “EC50 (log10 M)” value in the assay on HGGX39 [3] and in the assay on DIPGX37 [4] were -5.95 and -5.69, respectively. In addition, the maximal growth inhibition in the assay with HGGX39 [5] stood at 26.4%; in the assay with DIPGX37 [6], 26.5%.
As to `O=C1c2c(O)ccc(O)c2C(=O)c2c(NCCNCCO)ccc(NCCNCCO)c21` [MITOXANTHRONE], the “area under dose-response curve” value in the assay on HGGX39 [1] is 116; in the assay on DIPGX29, 116; in the assay with HGGX6, 112; with DIPGX37 [2], 104. Moreover, the “EC50 (log10 M)” value in the assay on DIPGX37 [4] is -4.79. For the same molecule, in the assay on DIPGX37 [6], the maximal growth inhibition amounted to 81.9%.
`CC(=O)OC12COC1CC(O)C1(C)C(=O)C(O)C3=C(C)C(O)CC(O)(C(OC(=O)c4ccccc4)C21)C3(C)C` (stereo not drawn) [10-DEACETYLBACCATIN-III]: the “area under dose-response curve” value in the assay on HGGX39 [1] stood at 47.3; in the assay with DIPGX29, 13.6; in the assay on HGGX6 it was 14.9; in the assay on DIPGX37 [2], 28.9. In addition, the “EC50 (log10 M)” value in the assay on HGGX39 [3] was -5.19; in the assay with DIPGX37 [4], -4.92. The maximal growth inhibition in the assay with HGGX39 [5] is 39.6%; in the assay with DIPGX37 [6], 31.4%.
In the case of `CO[C@H]1C[C@@H]2CC[C@@H](C)[C@@](O)(O2)C(=O)C(=O)N2CCCC[C@H]2C(=O)O[C@H]([C@H](C)C[C@@H]2CC[C@@H](O)[C@H](OC)C2)CC(=O)[C@H](C)/C=C(\C)[C@@H](O)[C@@H](OC)C(=O)[C@H](C)C[C@H](C)/C=C/C=C/C=C/1C` [SIROLIMUS], the “area under dose-response curve” value with HGGX39 [1] is 58.5; with DIPGX29, 47.3; with HGGX6 it was 62.6; with DIPGX37 [2], 59.1. Besides, the “EC50 (log10 M)” value in the assay on DIPGX37 [4] was -4.68. For the same molecule, in the assay on DIPGX37 [6], the maximal growth inhibition stood at 67.7%.
In the case of `CS(=O)(=O)c1ccc([C@@H](O)[C@@H](CO)NC(=O)C(Cl)Cl)cc1` [THIAMPHENICOL], the “area under dose-response curve” value with HGGX39 [1] is 52; in the assay with DIPGX29, 15.4; in the assay on HGGX6, 19.8; in the assay with DIPGX37 [2] it was 29.7. In addition, in the assay on HGGX39 [3], the “EC50 (log10 M)” value was -6. In addition, in the assay with HGGX39 [5], the maximal growth inhibition was determined as 26%.
`CCC(C)n1ncn(-c2ccc(N3CCN(c4ccc(OCC5COC(Cn6cncn6)(c6ccc(Cl)cc6Cl)O5)cc4)CC3)cc2)c1=O` (stereo not drawn) [ITRACONAZOLE]: the “area under dose-response curve” value amounted to 28.4 with HGGX39 [1], 20 in the assay on DIPGX29, 29.7 with HGGX6 and 56.7 with DIPGX37 [2]. In the assay with DIPGX37 [4], the “EC50 (log10 M)” value is -4.91. In the assay with DIPGX37 [6], this molecule had a maximal growth inhibition of 62.3%.
As to `COc1ccc(C2CC(c3ccccc3)=NN2c2ccc(S(N)(=O)=O)cc2)cc1` (stereo not drawn) [ML141], the “area under dose-response curve” value with HGGX39 [1] worked out at 20; with DIPGX29, 26.6; with HGGX6 it was 33.7; in the assay with DIPGX37 [2], 33.4. For the same molecule, the “EC50 (log10 M)” value in the assay on HGGX39 [3] was -4.54. In the assay with HGGX39 [5], this molecule came in with a maximal growth inhibition of 38.3%.
With `CN(C)C(=O)c1cc2cnc(Nc3ccc(N4CCNCC4)cn3)nc2n1C1CCCC1` [RIBOCICLIB], the “area under dose-response curve” value in the assay on HGGX39 [1] came to 32.5; in the assay on DIPGX29, 13.1; with HGGX6 it was 17.1; with DIPGX37 [2], 27.7. For the same molecule, in the assay on HGGX39 [3], the “EC50 (log10 M)” value was -5.39. Also, the maximal growth inhibition in the assay on HGGX39 [5] amounted to 21.8%.
Regarding `COc1cc2c(cc1OCCCN1CCCC1)N=C(N)C21CCC1` [A-366], the “area under dose-response curve” value with HGGX39 [1] was found to be 9.97; in the assay with DIPGX29, 9.92; in the assay with HGGX6, 19.9; in the assay on DIPGX37 [2], 19.
As for `Clc1cc2c(NC3CCCC3)nnc(-c3ccncc3)c2cc1Cl` [A-196], the “area under dose-response curve” value in the assay on HGGX39 [1] was 2.32; in the assay on DIPGX29, 2.12; in the assay on HGGX6, 3.18; in the assay with DIPGX37 [2], 18.8. The “EC50 (log10 M)” value in the assay on DIPGX37 [4] was -4.53. The molecule also came in with a maximal growth inhibition in the assay on DIPGX37 [6] of 23.4%.
With `Nc1ccn([C@H]2CC[C@@H](CO)O2)c(=O)n1` [ZALCITABINE], the “area under dose-response curve” value in the assay with HGGX39 [1] was found to be 14.5; in the assay on DIPGX29, 13.5; in the assay with HGGX6 it was 2.54; in the assay with DIPGX37 [2] it was 14.2.
In the case of `Nc1ccn([C@@H]2O[C@H](CO)[C@@H](O)[C@@H]2O)c(=O)n1` [CYTARABINE], the “area under dose-response curve” value in the assay with HGGX39 [1] stood at 30.6; in the assay on DIPGX29 it was 42.9; in the assay with HGGX6, 15.6; in the assay on DIPGX37 [2], 23.3.
Turning to `Cc1c(N)nc([C@H](CC(N)=O)NC[C@H](N)C(N)=O)nc1C(=O)N[C@H](C(=O)N[C@H](C)[C@@H](O)[C@H](C)C(=O)N[C@H](C(=O)NCCc1nc(-c2nc(C(=O)NCCC[S+](C)C)cs2)cs1)[C@@H](C)O)[C@@H](OC1OC(CO)C(O)C(O)C1OC1OC(CO)C(O)C(OC(N)=O)C1O)c1cnc[nH]1` (stereo partly drawn) [BLEOMYCIN], the “area under dose-response curve” value amounted to 19.5 in the assay on HGGX39 [1], 22.6 in the assay on DIPGX29, 6.9 with HGGX6 and 40.4 in the assay on DIPGX37 [2]. Besides, the “EC50 (log10 M)” value in the assay on DIPGX37 [4] was -5.22. For the same molecule, in the assay on DIPGX37 [6], the maximal growth inhibition amounted to 24.8%.
Consider `Nc1nc2[nH]cc(CCc3ccc(C(=O)N[C@@H](CCC(=O)O)C(=O)O)cc3)c2c(=O)[nH]1` [PEMETREXED], for which the “area under dose-response curve” value in the assay on HGGX39 [1] was 23.2; in the assay with DIPGX29 it was 34.6; in the assay with HGGX6, 12.7; with DIPGX37 [2], 9.28.
As for `CNCCN1CCC(OCc2ccccc2)CC1` [MS049], the “area under dose-response curve” value in the assay with HGGX39 [1] is 9.22; in the assay on DIPGX29, 19.1; with HGGX6 it was 11.9; with DIPGX37 [2] it was 10.6.
On the same counts, the results for `CS(=O)(=O)c1ccc([C@@H](O)[C@@H](CF)NC(=O)C(Cl)Cl)cc1` [FLORFENICOL] are 15.6, 11.3, 4.4 and 10.6.
For `OC[C@H]1O[C@@H](n2cnc3c2N=CNC[C@H]3O)C[C@@H]1O` [PENTOSTATIN], in that order: 10, 3.92, 5.39 and 10.9.
For `CN(N=O)C(=O)N[C@H]1C(O)O[C@H](CO)[C@@H](O)[C@@H]1O` (mixture of isomers) [STREPTOZOSIN], in that order: 7.25, 11, 5.51 and 8.39.
